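Each compound was tested at five concentrations against cells in 96-well plates for 48 hours. The concentration for 50% growth inhibition is given as GI50. At the TGI there is no net growth.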
Key:
Experiment in all cases: NCI tumour cell line growth inhibition, 48 h
CAKI-1 renal = system: CAKI-1 renal
CCRF-CEM leukemia = system: CCRF-CEM leukemia
KM12 colon = system: KM12 colon
A549 NSCLC = system: A549 NSCLC
786-0 renal = system: 786-0 renal
RPMI-8226 leukemia = system: RPMI-8226 leukemia
SK-OV-3 ovarian = system: SK-OV-3 ovarian
NCI/ADR-RES ovarian = system: NCI/ADR-RES ovarian
M14 melanoma = system: M14 melanoma
TK-10 renal = system: TK-10 renal

Row | SMILES | GI50 (CAKI-1 renal) [µM] | TGI (CAKI-1 renal) [µM] | GI50 (CCRF-CEM leukemia) [µM] | TGI (CCRF-CEM leukemia) [µM] | GI50 (KM12 colon) [µM] | TGI (KM12 colon) [µM] | GI50 (A549 NSCLC) [µM] | TGI (A549 NSCLC) [µM] | GI50 (786-0 renal) [µM] | TGI (786-0 renal) [µM] | GI50 (RPMI-8226 leukemia) [µM] | TGI (RPMI-8226 leukemia) [µM] | GI50 (SK-OV-3 ovarian) [µM] | TGI (SK-OV-3 ovarian) [µM] | GI50 (NCI/ADR-RES ovarian) [µM] | TGI (NCI/ADR-RES ovarian) [µM] | GI50 (M14 melanoma) [µM] | TGI (M14 melanoma) [µM] | GI50 (TK-10 renal) [µM] | TGI (TK-10 renal) [µM]
1 | CCCCNC(c1ccc(Cl)cc1)C(O)c1ccc(Cl)cc1 (stereo not given) | 1.82 | 6.63 | 2.49 | 8.65 | 2.04 | 5.34 | 3.87 | 17.8 | 1.59 | 3.95 | 2.09 | 5.51 | 5.72 | 20 | 1.81 | 5.35 | 1.22 | 2.9 | 2.2 | 6.99
2 | Cc1ccc(/C(=N/Nc2ccc([N+](=O)[O-])cc2)Sc2cc(Cl)c(C)cc2S(N)(=O)=O)cc1 | 1.61 | 3.27 | 2.11 | 4.58 | 1.37 | 3.18 | 2.55 | 7.45 | 1.82 | 3.37 | 1.82 | 4.27 | 1.94 | 4.34 | 2.03 | 4.91 | 1.78 | 3.85 | 1.61 | 3.38
3 | COc1c2ccoc2nc2c(OC)c(OCC(O)C(C)(C)O)ccc12 (stereo not given) |  | > 100 |  | > 100 |  | > 100 |  | > 100 |  | > 100 |  | > 100 |  | > 100 |  | > 100 |  | > 100 |  | > 100
4 | NCCO/C=C/C(N)C(=O)O (stereo not given) |  | > 100 |  | > 100 |  | > 100 |  | > 100 |  | > 100 |  | > 100 |  | > 100 |  | > 100 |  | > 100 |  | > 100
5 | Cn1c(COC(=O)NCCn2ccnc2)nc2c(N3CCOCC3)nc(-c3ccccc3)nc21 | 0.343 | 1.55 | 0.254 | 1.44 | 1.43 | 3.06 | 1.43 | 3.38 | 0.72 | 2.1 | 0.222 | 1.05 | 3.63 | 10.6 | 1.54 | 5.09 | 0.561 | 1.92 | 1.07 | 2.41
6 | CN(C)CCC(=O)Nc1ccc(-n2cc(-c3cccc(NC(=S)Nc4cccc(-c5cn(-c6ccc(NC(=O)CCN(C)C)cc6)nn5)c4)c3)nn2)cc1 | > 100 | > 100 | 21.4 | 78.3 | 10.7 | 34 | 27.8 | > 100 | > 100 | > 100 | 38.6 | > 100 | > 100 | > 100 | > 100 | > 100 | 49.5 | > 100 | 83.7 | > 100
7 | CSc1nc(Nc2cccc(NC(=O)CCl)c2)c(C#N)c(-c2cccc([N+](=O)[O-])c2)n1 | 2.12 | 10.4 | 0.34 | > 100 | 1.93 | 3.92 | 16.6 | 49.7 | 2.94 | 43.7 | 2.1 | 5.6 | 4.36 | 17.3 | 2.38 | 7.64 | 2.01 | 6.08 | 4.2 | 10.9
8 | OCc1ccc(N(Cc2ccc(F)cc2)Cc2ccc(F)cc2)cc1Cl | 1.7 | 5.87 | 13.1 | 33.9 | 10.5 | 23.8 | 6.72 | 22.1 | 11.6 | 25.5 | 8.44 | 30.4 | 13.6 | 26.5 | 12.3 | 30.4 | 5.79 | 20.2 | 2.08 | 11.2
9 | CC(C)(C)C[C@H]1N[C@@H](C(=O)NC2CCC(O)CC2)[C@H](c2cccc(Cl)c2F)[C@@]12C(=O)Nc1cc(Cl)ccc12 (stereo not given in full) | 0.162 | 12.4 | 3.51 | 15.4 | 6.85 | 22.1 | 0.778 | 16.4 | 4.22 | 15.4 | 2.63 | 8.41 | 11.2 | 23.8 | 14 | 33.9 | 4.05 | 17.3 | 11.9 | 25
10 | CCOC(=O)Nc1ccc2nc(-c3cscn3)[nH]c2c1 | 5.63 | > 100 | 7.01 | > 100 | 2.05 | > 100 | 5.99 | > 100 | 9.16 | > 100 | 4.6 | > 100 | 3.61 | 29.8 | 2.71 | > 74.9 | 2.86 | > 100 | 28.6 | > 100

Reference: PubChem BioAssay (NCI)
